The molecules below were run on H. pylori (assay: MIC90 against H. pylori, growth on tryptic soy agar with 5% horse blood). Conditions: Table 1; 72 h, microaerophilic, 37° C.
Type: cell-based
Set-up: unit not given here
Protocol: Bacterial Growth. H. pylori were grown for 72 hours under microaerophilic condition (5% O2, 10% CO2 and 85% N2) at 37° C. on tryptic soy agar with 5% horse blood. To determine the MIC values, the test substance was added to the gel solution right before pouring. To compare the zones of inhibition, specific antibiotics were added to the center of disc after spreading H. pylori, and then H. pylori was allowed to grow for 72 hours under microaerophilic condition at 37° C.

Q: For `Nc1ncnc2c(CN[C@H](CO)CSc3cnccn3)c[nH]c12`, which “MIC90 against H. pylori” value is on record?
A: 8

Q: How did the “MIC90 against H. pylori” value turn out when `CCCCC[C@@H](CO)NCc1c[nH]c2c(N)ncnc12` was run?
A: 8

Q: `CCCCCC[C@@H](CO)NCc1c[nH]c2c(N)ncnc12` was tested. Which “MIC90 against H. pylori” value did it give?
A: 8

Q: `CCCCSC[C@@H](CO)NCc1c[nH]c2c(N)ncnc12` was tested. Which “MIC90 against H. pylori” value did it give?
A: 16

Q: `CCCC[C@@H](CO)NCc1c[nH]c2c(N)ncnc12` was tested. Which “MIC90 against H. pylori” value did it give?
A: 16

Q: `CCC[C@@H](CO)NCc1c[nH]c2c(N)ncnc12` was tested. Which “MIC90 against H. pylori” value did it give?
A: 40

Q: Which “MIC90 against H. pylori” value does the source give for `CCCCCCCCC[C@@H](CO)NCc1c[nH]c2c(N)ncnc12` here?
A: 80

Q: Which “MIC90 against H. pylori” value does the source give for `Nc1ncnc2c(CN[C@H](CO)CSCc3ccccc3)c[nH]c12` here?
A: >80

Q: `CCCC[C@H](CO)NCc1c[nH]c2c(N)ncnc12` was tested. Which “MIC90 against H. pylori” value did it give?
A: >80

Q: Which “MIC90 against H. pylori” value does the source give for `Nc1ncnc2c(CN[C@H](CO)CSc3ccc(Cl)cc3)c[nH]c12` here?
A: >80

Q: `CSC[C@@H](O)[C@@H](CO)NCc1c[nH]c2c(N)ncnc12` was tested. Which “MIC90 against H. pylori” value did it give?
A: >80

Q: Which “MIC90 against H. pylori” value does the source give for `C[C@@H](CO)NCc1c[nH]c2c(N)ncnc12` here?
A: >80

Q: With `Nc1ncnc2c(CN[C@H](CO)c3ccccc3)c[nH]c12` as the molecule, how does the “MIC90 against H. pylori” value read?
A: >80

Q: How did the “MIC90 against H. pylori” value turn out when `CC[C@@H](CO)NCc1c[nH]c2c(N)ncnc12` was run?
A: >80

Q: For `CSC[C@H](O)[C@H](CO)NCc1c[nH]c2c(N)ncnc12`, which “MIC90 against H. pylori” value is on record?
A: >80

Q: Which “MIC90 against H. pylori” value does the source give for `Nc1ncnc2c(CN[C@H](CO)Cc3c[nH]cn3)c[nH]c12` here?
A: >80

Q: `CCCCCCCSC[C@@H](CO)NCc1c[nH]c2c(N)ncnc12` was tested. Which “MIC90 against H. pylori” value did it give?
A: 80

Q: With `CC(C)[C@@H](CO)NCc1c[nH]c2c(N)ncnc12` as the molecule, how does the “MIC90 against H. pylori” value read?
A: >80

Q: How did the “MIC90 against H. pylori” value turn out when `CC(C)C[C@@H](CO)NCc1c[nH]c2c(N)ncnc12` was run?
A: >80

Q: `CSC[C@@H](CO)NCc1c[nH]c2c(N)ncnc12` was tested. Which “MIC90 against H. pylori” value did it give?
A: >80

Q: Which “MIC90 against H. pylori” value does the source give for `CSC[C@H](CO)NCc1c[nH]c2c(N)ncnc12` here?
A: >80

Q: How did the “MIC90 against H. pylori” value turn out when `CC[C@H](C)[C@@H](CO)NCc1c[nH]c2c(N)ncnc12` was run?
A: >80

Same assay, conditions: Table 2; 72 h, microaerophilic, 37° C.

Q: Which “MIC90 against H. pylori” value does the source give for `CCCCCCCCNCc1c[nH]c2c(N)ncnc12` here?
A: >80

Q: How did the “MIC90 against H. pylori” value turn out when `Nc1ncnc2c(CNCCO)c[nH]c12` was run?
A: >80
